We go through three compounds from patent US20170226123A1, “Phenylaminopyrimidine-Derived Compounds, Method for Obtaining, Using Said Compounds in the Treatment of Cancer, and Treatment Methods” (Fundacao Oswaldo Cruz, priority 2014, published 2017).

“Also recorded” adds a separate entry of the source.

The test system of data set [1] is K562. The data set can be described thus: Cell cycle and DNA fragmentation analysis (propidium iodide, flow cytometry), K562. The note with it: K562, 24 h. Format: cell-based, human. The method, then:
(§1) The analysis of the impact of the new compounds on the phases of the cell cycle and on the induction of DNA fragmentation were carried out by DNA labeling with the fluorochrome propidium iodide. The assays were analyzed by flow cytometry and the results were analyzed in relation to the control (cells without treatment).
(§2) The induction of DNA fragmentation by the new compounds and by imatinib was assessed by flow cytometry. The analysis of cell cycle and DNA fragmentation was carried out upon 24 hours of incubation with the compounds.
A general note: In flow cytometry, cells or beads pass a laser one at a time.

Data set [2] has as its system K562. The data set can be described thus: MTT cell viability, K562 lineage.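 As to all read-outs here: K562 cells (BCR-ABL expressing, CML derived), MTT formazan absorbance after 72 h exposure, compared with untreated control cells, at least three independent experiments run in triplicate.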 The note with it: for Cell viability percentage: average of three independent experiments.
Procedure: (§3) Cell viability was evaluated through the MTT method, after 72 hours of incubation with TKIs. MTT is a colorimetric method which measures mitochondrial dehydrogenase activity, based on the ability of living cells to reduce the salt, 3-(4,5-dimethylazole-2-yl)-2,5-diphenyltetrazolium bromide in the product formazan.
Cells were cultured in plates of 96 wells at the concentration of 1×10^4 cells/well in 200 μl of RPMI supplemented with 10% fetal bovine serum. 10 μl of each of the novel TKIs, or imatinib, previously diluted in RPMI medium, were added in different concentrations, and no molecule or imatinib was added in the control group. The plates were kept in a humid atmosphere containing 5% CO2 at 37° C. for 72 hours. Four hours before completion of the established time (72 hours), 20 μl of MTT (Sigma) (final concentration of 10 μg/ml) were added. The plates were kept in the oven for the remaining four hours. 180 μl of the supernatant were removed from each well, and then 150 μl of dimethylsulfoxide (DMSO; Sigma) were added, homogenizing thoroughly for complete dissolution of the salt crystals formed by mitochondrial metabolism, thus resulting in a coloration. […] The 96-well plate was read by the spectrophotometer (Spectramax Plus 384), using a wavelength of 570 nm. The results were analyzed through the absorbance of each well. The viability percentage was obtained through the following formula: [(Absorbance of cells treated with TKIs or imatinib/Absorbance of untreated cells)×100]. All the tests were performed in three different occasions. Three experiments, at least, independent, were carried out and triplicates were made for each concentration. By means of this method, we detected the cell inhibition percentage of each new molecule and we compared it with the percentage of viability reduction caused by imatinib.
The test system of data set [3] is CML. The settings on record: CML patients treated with imatinib (Hunter, 2007); cited from earlier work.
Data set [4] deals with K562-Lucena 1. The note with it: MTT, 72 h; for viability reduction compared between K562 and Lucena lineages: FIG. 2A.
Procedure: as §3
(§4) Cells were cultured in plates of 96 wells at the concentration of 1×10^4 cells/well in 200 μl of RPMI supplemented with 10% fetal bovine serum. 10 μl of each of the novel TKIs, or imatinib, previously diluted in RPMI medium, were added in different concentrations, and no molecule or imatinib was added in the control group. The plates were kept in a humid atmosphere containing 5% CO2 at 37° C. for 72 hours. Four hours before completion of the established time (72 hours), 20 μl of MTT (Sigma) (final concentration of 10 μg/ml) were added. The plates were kept in the oven for the remaining four hours. 180 μl of the supernatant were removed from each well, and then 150 μl of dimethylsulfoxide (DMSO; Sigma) were added, homogenizing thoroughly for complete dissolution of the salt crystals formed by mitochondrial metabolism, thus resulting in a coloration. […] The 96-well plate was read by the spectrophotometer (Spectramax Plus 384), using a wavelength of 570 nm. The results were analyzed through the absorbance of each well. The viability percentage was obtained through the following formula: [(Absorbance of cells treated with TKIs or imatinib/Absorbance of untreated cells)×100]. All the tests were performed in three different occasions. Three experiments, at least, independent, were carried out and triplicates were made for each concentration.
(§5) The compounds were tested for their cytotoxicity in this lineage.
(§6) The viability of the Lucena cell lineage was evaluated after 72 h of incubation with the novel compounds, through the MTT assay.
Data set [5] has as its system K562-Lucena 1. The data set is described as follows: cells. The note with it: Homo sapiens, K562-Lucena 1, 72 h, read-out: reduction in the viability.
Procedure: as §3, §4, §5, §6
Data set [6] has as its system K562. The data set is described as follows: Annexin V/propidium iodide cell death assay by flow cytometry, K562. The settings on record: K562, 24 h, 0.25-1.0 μM.
Procedure: (§7) Cells were incubated for 24 hours with or without addition of the novel compounds. The index of apoptosis induced by the novel compounds was obtained as follows: percentage of cells in induced apoptosis (treated with the drugs) minus the percentage of cells in spontaneous apoptosis (not treated with the drugs) (Vasconcelos et aL, 2007; Vasconcelos et al., 2011).
(§8) To analyze the apoptosis induction potential by the new imatinib derivatives, annexin V/propidium iodide assay was used by flow cytometry.
(§9) To analyze death by apoptosis, the cells were incubated for 24 hours instead of 72 hours.
(§10) Cells without addition of any drug were used for the evaluation of spontaneous death. Cells incubated with DMSO (used to solubilize the compounds derived from imatinib) were used to discard the effect of this substance on cell death induction.
Data set [7] relates to K562-Lucena 1. The data set is described as follows: Cell cycle and DNA fragmentation analysis (propidium iodide, flow cytometry), K562-Lucena 1. It counts as cell-based, human. The note with it: 24 h. The method, then: as §1, §2
Data set [8] has as its system K562-Lucena 1. The data set is described as follows: Annexin V/propidium iodide cell death assay by flow cytometry, K562-Lucena 1. The settings on record: for induction of cell death (annexin-positive and annexin/PI-positive cells): Lucena, 0.25-1.0 μM.
Procedure: as §7, §8, §9, §10
The mark [9] stands for this setting: Homo sapiens, K562, 72 h, read-out: Cell viability percentage.

A word on the viability: it is the share of living cells, or the viability signal relative to a control. For the compound `Cc1ccc(NC(=O)c2ccc(CN3CCN(C)CC3)cc2)cc1Nc1nccc(-c2cccnc2)n1` [Imatinib, imatinib, reference compound], in data set [1], the DNA fragmentation entry is on record as “induced DNA fragmentation” and the “increase in the number of cells in G0/G1 phase (halt in G0/G1)” value is “about 10%”. Moreover, in data set [2] (setting [9]), the viability at 0.05 µM is 93.5%, the viability at 0.1 µM came out at 63.4%, the viability at 0.25 µM was found to be 54.5% and the viability at 0.5 µM was found to be 20.1%. Also, in data set [2] (setting [9]), the viability at 1 µM is 16.3%, the viability at 1.5 µM was determined as 14.3%, the viability at 2 µM was found to be 19.8% and the viability at 2.5 µM came out at 19.4%. Also, in data set [2] (setting [9]), the viability at 3 µM stood at 14.8%, the viability at 4 µM is 13.5% and the viability at 5 µM was found to be 15%. Besides, the “patients reaching hematological remission” value in data set [3] is roughly 100%. In data set [4] (Lucena), the “concentration from which viability reduction reached a plateau” value stood at 1.5 µM. Moreover, in data set [5], the cytotoxicity at 0.25 µM is roughly 60%.

Take `C[C@H]1[C@@H](OC(=O)CCC(=O)O)O[C@@H]2O[C@@]3(C)CC[C@H]4[C@H](C)CC[C@@H]1[C@@]24OO3.Cc1ccc(NC(=O)c2ccc(CN3CCN(C)CC3)cc2)cc1Nc1nccc(-c2cccnc2)n1` [Compound 03, N-(2-methyl-5-(4-((4-methylpiperazine-1-yl)methyl)benzamide)phenyl)-4-(pyridin-3-yl)pyrimidin-2-aminium-4-oxo-4-(((3R,5aS,6R,8aS,9R,10R,12R,12aR)-3,6,9-trimethyldecahydro-3H-3, 12-epoxy[1,2]dioxepin[4,3-yl]isochromen-10-yl)oxy)butanoate]: the “increase in the number of cells in G0/G1 phase (halt in G0/G1)” value in data set [1] is on record as “about 10%”. Also, the Cell viability percentage worked out at 77.68% in data set [2] (K562, MTT, 72 h, 0.05 μM); 82.43% in data set [2] (K562, MTT, 72 h, 0.1 μM); 43.45% in data set [2] (K562, MTT, 72 h, 0.25 μM); 20.16% in data set [2] (K562, MTT, 72 h, 0.5 μM); 18.11% in data set [2] (K562, MTT, 72 h, 1.0 μM); 16.73% in data set [2] (K562, MTT, 72 h, 1.5 μM). The Cell viability percentage in data set [2] (K562, MTT, 72 h, 2.0 μM) is 15.12%; in data set [2] (K562, MTT, 72 h, 2.5 μM), 17.89%; in data set [2] (K562, MTT, 72 h, 3.0 μM) it was 16.69%; in data set [2] (K562, MTT, 72 h, 4.0 μM), 16.51%; in data set [2] (K562, MTT, 72 h, 5.0 μM) it was 15.76%. Besides, in data set [2] (K562, MTT, 72 h, 0.25 μM), the “reduction in cell viability” value is given as “about 50%”. Besides, the “viability reduction compared between K562 and Lucena lineages” value in data set [4] is given as “reduced the viability in the two lineages in a similar way”. The “induction of cell death (annexin-positive and annexin/PI-positive cells)” value in data set [6] is recorded as “induced cell death, probably by apoptosis”; in data set [8] (24 h), “induced cell death, probably by apoptosis”. Also, the DNA fragmentation entry in data set [7] is listed as “induced DNA fragmentation”. Moreover, the “cell death rate in Lucena compared with K562” value in data set [8] (24 h) is listed as “greater cell death rate than the K562 lineage”.

As to `C[C@H]1[C@@H](OC(=O)CCC(=O)O)O[C@@H]2O[C@@]3(C)CC[C@H]4[C@H](C)CC[C@@H]1[C@@]24OO3.Cc1ccc(N)cc1Nc1nccc(-c2cccnc2)n1` [Compound 04, 4-methyl-3-((4-(pyridin-3-yl)pyrimidin-2-yl)amino)benzenaminium-4-oxo-4-(((3R,5aS,6R,8aS,9R,10R,12R,12aR)-3,6,9-trimethyldecahydro-3H-3,12-epoxy[1,2]dioxepin[4,3-yl]isochromen-10-yl)oxy)butanoate], the “alterations in the cell cycle” value in data set [1] was “did not foster alterations in the cell cycle”. In addition, the Cell viability percentage was 97.54% in data set [2] (K562, MTT, 72 h, 0.05 μM); 86.68% in data set [2] (K562, MTT, 72 h, 0.1 μM); 87.20% in data set [2] (K562, MTT, 72 h, 0.25 μM); 79.53% in data set [2] (K562, MTT, 72 h, 0.5 μM); 85.68% in data set [2] (K562, MTT, 72 h, 1.0 μM); 69.52% in data set [2] (K562, MTT, 72 h, 1.5 μM). Besides, the Cell viability percentage in data set [2] (K562, MTT, 72 h, 2.0 μM) is given as 56.13%; in data set [2] (K562, MTT, 72 h, 2.5 μM), 53.28%; in data set [2] (K562, MTT, 72 h, 3.0 μM), 48.95%; in data set [2] (K562, MTT, 72 h, 4.0 μM), 48.17%; in data set [2] (K562, MTT, 72 h, 5.0 μM) it was 47.69%. This compound also registered a reduction of viability in data set [2] (K562, MTT, 72 h, 2.5 μM) of 50%. In data set [4], the “viability reduction compared between K562 and Lucena lineages” value is “more effective in the Lucena lineage; also recorded: greater percentage of reduction of cell viability than the K562 lineage”. The “induction of cell death (annexin-positive and annexin/PI-positive cells)” value in data set [6] is “induced cell death, probably by apoptosis”; in data set [8] (24 h), “induced cell death, probably by apoptosis”. In addition, the “cell death rate compared with imatinib” value in data set [8] (Lucena lineage) is given as “higher”.
